Experiments:
[1] = molecular target: T1, GAL4 DBD (1-147)-CfEcR(DEF)/VP16AD-βRXREF-LmUSPEF (Choristoneura fumiferana, UniProt O77240); experiment: 27-63 assay: luciferase reporter gene expression in stable CHO cell clone 27-63; details: for 27-63 Rel Max FI: maximum fold induction at any concentration relative to that of GS-E ligand; for CC50: read-out: 27-63 LC50, average, dose response, three-parameter logistic model
T1 sequence (O77240 191-513): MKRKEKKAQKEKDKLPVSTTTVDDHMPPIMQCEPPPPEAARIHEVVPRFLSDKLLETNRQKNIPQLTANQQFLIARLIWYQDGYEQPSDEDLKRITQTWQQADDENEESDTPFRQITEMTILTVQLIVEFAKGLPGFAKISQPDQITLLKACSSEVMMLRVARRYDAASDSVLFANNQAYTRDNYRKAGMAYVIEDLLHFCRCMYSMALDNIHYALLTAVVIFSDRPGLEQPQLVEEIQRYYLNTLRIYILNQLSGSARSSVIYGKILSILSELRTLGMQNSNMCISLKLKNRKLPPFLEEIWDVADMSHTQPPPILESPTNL
T1 sequence (P28702 296-455 partner limits assumed): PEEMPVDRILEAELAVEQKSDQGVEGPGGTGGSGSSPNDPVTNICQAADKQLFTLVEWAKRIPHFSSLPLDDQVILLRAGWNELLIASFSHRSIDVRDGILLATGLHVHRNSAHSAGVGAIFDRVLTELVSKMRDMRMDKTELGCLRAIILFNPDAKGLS
In short: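 CHO clone stably expressing GAL4 DBD-CfEcR(DEF) and VP16AD-HsRXRβ/LmUSP EF chimera plus a 5XGAL4RE-luciferase reporter; ligands given at 8 concentrations (33 μM to 0.01 μM), luminescence read 48 h after treatment. Fold induction versus DMSO cells; BC50 from three-parameter logistic fit.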

[2] = molecular target: T2, Gal4 DBD/AaEcR (DEF) with VP16-βRXR-E (Aedes aegypti, UniProt P49880); experiment: cell-based; type: cell-based; details: for LC50 (half-maximal ligand concentration for reporter induction): average, dose response 33 μM to 0.01 μM, three-parameter logistic model, read-out: AA_3T3 LC50; for AA_3T3 Rel Max FI: maximum fold induction at any concentration relative to that of GS-E ligand; for Fold Induction Average, AA_3T3 Assay (33 μM): single dose 33 μM, RLU ligand treated / RLU DMSO treated cells
T2 construct: The wildtype D, E, and F domains from mosquito Aedes aegypti EcR (“AaEcR-DEF”); expressed in transfected cells; host or cells: 3T3 cells, transient transfection (Superfect)
T2 sequence (P28704 286-520 A311G/G315S/G445S/I449V): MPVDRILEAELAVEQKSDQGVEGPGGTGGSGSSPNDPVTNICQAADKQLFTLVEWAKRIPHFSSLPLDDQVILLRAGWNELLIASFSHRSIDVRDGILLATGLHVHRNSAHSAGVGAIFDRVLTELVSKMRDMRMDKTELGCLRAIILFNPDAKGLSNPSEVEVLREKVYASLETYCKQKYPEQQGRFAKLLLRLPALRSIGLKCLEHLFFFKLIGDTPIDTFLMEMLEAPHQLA
T2 sequence (P49880 405-776): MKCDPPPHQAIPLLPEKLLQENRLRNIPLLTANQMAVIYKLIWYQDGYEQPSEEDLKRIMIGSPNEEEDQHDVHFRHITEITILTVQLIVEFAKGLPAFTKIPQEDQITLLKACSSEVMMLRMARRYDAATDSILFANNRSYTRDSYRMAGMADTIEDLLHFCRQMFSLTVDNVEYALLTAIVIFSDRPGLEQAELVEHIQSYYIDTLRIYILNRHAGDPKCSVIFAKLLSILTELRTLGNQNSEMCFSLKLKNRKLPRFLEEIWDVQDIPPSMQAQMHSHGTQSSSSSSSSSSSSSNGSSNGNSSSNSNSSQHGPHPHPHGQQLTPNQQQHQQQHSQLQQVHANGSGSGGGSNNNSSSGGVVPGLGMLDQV
Procedure: 3T3 cells were trypsinized and plated at 2.5×10^3 cells/well on a 96-well plate. After incubation for 24 h at 37° C. under 5% CO2, cells were transfected with the Gal4 DBD/AaEcR (DEF) gene expression cassette and the reporter plasmid, pFRLuc, containing a 5XGAL4 response element and the firefly luciferase gene in serum free media using Superfect (Qiagen). After transfection for 4 h at 37° C., the cells were treated with ligand in serum media. […] Single dose testing was performed at 33 μM.

| SMILES | 27-63 Rel Max FI [1] | CC50 [1] | LC50 (half-maximal ligand concentration for reporter induction) [2] | AA_3T3 Rel Max FI [2] | Fold Induction Average, AA_3T3 Assay (33 μM) [2] | fold induction at 33 µM ([1]; CHO, read-out: Fold Induction Average, 27-63 Assay (33 μM)) | fold induction at 33 µM ([2]; NIH3T3, read-out: Fold Induction Average, AA_3T3 Assay (33 μM)) | Fold Induction Average, 27-63 Assay (33 μM) ([1]; single dose 33 μM, RLU ligand treated / RLU DMSO treated cells) |
| --- | --- | --- | --- | --- | --- | --- | --- | --- |
| COc1cccc(C(=O)NC2(C(=O)c3ccc(C)cc3)CCCC2)c1C [Example 79] | 0.32 | 4.38 µM | > 33 µM | 0.00 | 12 | – | – | – |
| O=C(NC1(C(=O)c2ccccc2)CCCC1)c1ccccc1 [Example 139] | 0.00 | > 33 µM | – | – | 2 | – | – | – |
| COc1cccc(C(=O)NC2(C(=O)c3ccccc3)CCCC2)c1 [Example 141] | 0.00 | > 33 µM | – | – | 1 | – | – | – |
| CCc1c(OC)cccc1C(=O)NC1(C(=O)c2cc(C)cc(C)c2)CCCCC1 [Example 143] | 0.91 | 1.5 µM | 2.81 µM | 0.59 | 1929 | – | – | – |
| CCc1c(OC)cccc1C(=O)NC1(C(=O)c2cc(C)cc(C)c2)CCCC1 [Example 144] | 0.93 | 1.52 µM | 2.67 µM | 0.70 | 2339 | – | – | – |
| COc1cccc(C(=O)NC2(C(=O)c3cc(C)cc(C)c3)CCN(C(C)=O)CC2)c1C [Example 149] | – | – | – | – | – | 1 | 2 | – |
| CCNC(=O)N1CCC(NC(=O)c2cccc(OC)c2C)(C(=O)c2cc(C)cc(C)c2)CC1 [Example 157] | – | – | – | – | 1 | – | – | 1 |

— patent publication US8129355B2, “Ketone ligands for modulating the expression of exogenous genes via an ecdysone receptor complex” (priority 2002, dated 2012)
